Legend:
[1] = molecular target: T1, recombinant hRIPK2 protein (kinase domain aa 1-299-His-tagged) (Homo sapiens, UniProt O43353); assay: RIPK2 AlphaLISA assay (displacement of bead-bound CZC-8004 from hRIPK2); type: binding; conditions: recombinant hRIPK2 kinase domain 10 nM, 2 h at 23° C.
T1 construct: kinase domain aa 1-299-His-tagged; purchased Life Technologies PR7829A
In short: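 His-tagged kinase domain (10 nM, as diluted) was mixed with compound (0.8% DMSO), acceptor beads bearing the probe CZC-8004 and Ni2+ donor beads. After 2 h at 23 °C, AlphaLISA signal was read. Loss of signal reflects displacement of the probe from RIPK2.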

[2] = Human protein binding free fraction (Assay A, RED plate equilibrium dialysis); type: in vitro ADME; conditions: plasma, read-out: Assay A: Human protein binding free fraction (F %)
Experimental: Human protein binding protocol: Compound was added to plasma or brain homogenate and incubated at 2 μM at 37° C. in the RED plate (Thermo n° 96009, cut-off 8000 Da) against PBS buffer. After 4 h, aliquots of plasma and buffer side were transferred to a well containing acetonitrile with an internal standard. After protein precipitation, samples were centrifuged and supernatant was injected in LC/MS/MS. Standards were prepared in the same matrix and treated as samples.
A fraction unbound (fuplasma) was determined for each plasma sample as follows: […]

[3] = Human Clint, microsomal metabolic stability (Assay B); type: in vitro ADME; conditions: pooled liver microsomes 0.5 mg/mL, 0.5 μM compound, NADPH
Experimental: Human Clint protocol: Pooled liver microsomes (Sekisui Xenotech) were diluted at 0.5 mg/mL in 50 mM phosphate buffer, pH 7.4 then pre-incubated with 0.5 μM […] for 7 min at 37° C. The reactions were initiated by adding prewarmed cofactor (0.44 mM NADPH). Aliquots of samples were taken at 0, 5, 10, 20 and 45 min and the reactions stopped by addition of cold acetonitrile containing an internal standard. Samples were centrifuged at 3000 g for 10 min at 4° C. and then supernatants were analyzed by LC/MS/MS for the amount of parent compound remaining.

hERG potassium channel = molecular target: T2, hERG potassium channel (Homo sapiens, UniProt Q12809); assay: hERG q-patch assay (Assay C, Sophion Qube automated electrophysiology); type: cell-based; conditions: read-out: Assay C: hERG q-patch inhibition IC50
T2 construct: host or cells: HEK (hERG-HEK stably transfected cell line)
Experimental: hERG q-patch assay protocol: The potential for test compound to inhibit the hERG potassium channel was determined using the Charles River ChanTest® hERG-HEK stably transfected cell line on the Sophion Qube automated electrophysiology platform. The assay was performed at room temperature and recordings of the hERG tail current from a population of cells were made using multi-hole QChips.

T2 sequence (Q12809 whole entry): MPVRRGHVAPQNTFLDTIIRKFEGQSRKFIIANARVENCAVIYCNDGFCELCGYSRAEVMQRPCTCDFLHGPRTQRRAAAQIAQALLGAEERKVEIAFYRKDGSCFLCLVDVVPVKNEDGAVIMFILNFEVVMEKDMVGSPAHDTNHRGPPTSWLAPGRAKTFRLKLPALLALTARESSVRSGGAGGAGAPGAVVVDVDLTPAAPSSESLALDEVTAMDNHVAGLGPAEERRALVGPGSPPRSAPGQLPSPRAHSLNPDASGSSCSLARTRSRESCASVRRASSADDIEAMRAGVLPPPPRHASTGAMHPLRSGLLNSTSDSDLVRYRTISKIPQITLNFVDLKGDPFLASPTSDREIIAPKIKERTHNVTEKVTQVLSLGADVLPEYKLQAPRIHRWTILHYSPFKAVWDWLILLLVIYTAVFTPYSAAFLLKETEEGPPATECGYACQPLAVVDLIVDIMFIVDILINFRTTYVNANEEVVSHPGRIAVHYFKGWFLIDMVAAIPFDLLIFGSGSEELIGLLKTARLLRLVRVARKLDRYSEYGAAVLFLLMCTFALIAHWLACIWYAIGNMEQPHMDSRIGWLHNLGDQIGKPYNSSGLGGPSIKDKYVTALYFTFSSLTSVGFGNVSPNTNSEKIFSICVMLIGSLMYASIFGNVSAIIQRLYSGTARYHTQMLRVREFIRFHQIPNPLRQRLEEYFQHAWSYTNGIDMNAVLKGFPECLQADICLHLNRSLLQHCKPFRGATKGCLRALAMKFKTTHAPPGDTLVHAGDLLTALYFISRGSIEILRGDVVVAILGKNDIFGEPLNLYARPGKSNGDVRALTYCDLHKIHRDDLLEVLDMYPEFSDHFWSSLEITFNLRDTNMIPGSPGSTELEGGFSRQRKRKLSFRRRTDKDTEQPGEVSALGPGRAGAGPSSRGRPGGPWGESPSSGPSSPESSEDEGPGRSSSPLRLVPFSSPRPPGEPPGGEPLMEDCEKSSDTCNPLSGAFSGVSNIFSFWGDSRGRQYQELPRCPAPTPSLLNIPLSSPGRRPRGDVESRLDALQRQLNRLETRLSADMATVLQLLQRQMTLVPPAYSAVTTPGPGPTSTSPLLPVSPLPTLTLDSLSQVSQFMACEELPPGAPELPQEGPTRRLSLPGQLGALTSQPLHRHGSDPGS
T1 sequence (O43353 1-299): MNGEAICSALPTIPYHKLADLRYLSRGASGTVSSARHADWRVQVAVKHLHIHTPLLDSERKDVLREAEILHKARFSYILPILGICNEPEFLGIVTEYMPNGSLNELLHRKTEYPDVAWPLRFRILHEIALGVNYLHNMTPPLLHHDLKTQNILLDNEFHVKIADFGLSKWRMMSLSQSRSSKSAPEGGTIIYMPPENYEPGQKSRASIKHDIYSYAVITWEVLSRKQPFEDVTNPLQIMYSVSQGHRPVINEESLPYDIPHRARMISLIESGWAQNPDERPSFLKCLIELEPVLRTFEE

SMILES | IC50 [1] [nM] | fraction unbound at 4 h, 2 μM [2] | Assay B: Human Clint (hCl) [3] | IC50 (hERG potassium channel) [nM]
O=C1[C@H](OCCO)C[C@H]2COc3ccn4ncc(c4n3)-c3cc(F)cc(c3)NCCN12 [Example 79, (12R,14S)-4-fluoro-12-(2-hydroxyethoxy)-16-oxa-7,10,20,21,24-pentaazapentacyclo[15.5.2.1^2,6.0^1°,^14.0^2°,^23]pentacosa-1(23),2(25),3,5,17(24),18,21-heptaen-11-one] | < 10 | > 0.01 | +++ (+++ indicates hCl equal or below 5 ug/min/mg prot) | 1000 to 10000
CO[C@@H]1C[C@H]2COc3ccn4ncc(c4n3)-c3cc(F)cc(c3)NCCN2C1=O [Example 3, (12R,14S)-4-fluoro-12-methoxy-16-oxa-7,10,20,21,24-pentaazapentacyclo[15.5.2.1^2,6.0^10,^14.0^20,^23] pentacosa-1(23),2(25),3,5,17(24),18,21-heptaen-11-one] | < 10 | > 0.01 | ++ (++ indicates hCl between 6-18 ug/min/mg prot) | > 10000
CO[C@@H]1C[C@H]2COc3nc4c(cnn4cc3-c3cnn(C)c3)-c3cc(F)cc(c3)NCCN2C1=O [Example 67, (12R,14S)-4-fluoro-12-methoxy-18-(1-methyl-1H-pyrazol-4-yl)-16-oxa-7,10,20,21,24-pentaazapentacyclo[15.5.2.1^2,6.0^1°,^14.0^2°,^23]pentacosa-1(23),2(25),3,5,17(24), 18,21-heptaen-11-one] | < 10 |  | +++ (+++ indicates hCl equal or below 5 ug/min/mg prot) | > 10000
COc1cn2ncc3c2nc1OC[C@@H]1C[C@@H](OC)C(=O)N1CCNc1cc(F)cc-3c1 [Example 1, (12R,14S)-4-fluoro-12,18-dimethoxy-16-oxa-7,10,20,21,24-pentaazapentacyclo[15.5.2.1^2,6.0^1°,^14.0^2°,^23]pentacosa-1(23),2(25),3,5,17(24),18,21-heptaen-11-one] | < 10 |  | +++ (+++ indicates hCl equal or below 5 ug/min/mg prot) | > 10000
CO[C@@H]1C[C@H]2COc3ccn4ncc(c4n3)-c3cc(cc(C(=O)N(C)OC)c3)NCCN2C1=O [Example 55, (12R,14S)—N,12-dimethoxy-N-methyl-11-oxo-16-oxa-7,10,20,21,24-pentaazapentacyclo[15.5.2.1^2,6.0^1°,^14.0^2°,^23]pentacosa-1(23),2,4,6(25),17(24),18,21-heptaene-4-carboxamide] | < 10 |  | +++ (+++ indicates hCl equal or below 5 ug/min/mg prot) | > 10000
CO[C@@H]1C[C@H]2COc3ccn4ncc(c4n3)-c3cc(cc(C(C)=O)c3)NCCN2C1=O [Example 54, (12R,14S)-4-acetyl-12-methoxy-16-oxa-7,10,20,21,24-pentaazapentacyclo[15.5.2.1^2,6.0^1°,^14.0^2°,^23]pentacosa-1(23),2,4,6(25),17(24),18,21-heptaen-11-one] | < 10 | > 0.01 | ++ (++ indicates hCl between 6-18 ug/min/mg prot) | > 10000
COc1cc2cc(c1)-c1cnn3ccc(nc13)OC[C@@H]1C[C@@H](OC(C)C)C(=O)N1CCN2 [Example 16, (12R,14S)-4-methoxy-12-(propan-2-yloxy)-16-oxa-7,10,20,21,24-pentaazapentacyclo[15.5.2.1^2,6.0^10,^14.0^20,^23]pentacosa-1(23),2,4,6(25),17(24),18,21-heptaen-11-one] | < 10 |  |  | 
COc1cc2cc(c1)-c1cnn3cc(OC)c(nc13)OC[C@@H]1C[C@@H](OCC3COC3)C(=O)N1CCN2 [Example 134, (12R,14S)-4,18-dimethoxy-12-(oxetan-3-ylmethoxy)-16-oxa-7,10,20,21,24-pentaazapentacyclo[15.5.2. 1^2,6.0^10,^14.0^20,^23]pentacosa-1(23),2,4,6(25),17(24),18, 21-heptaen-11-one] | < 10 |  |  | 
COCCO[C@@H]1C[C@H]2COc3nc4c(cnn4cc3OC3COC3)-c3cc(cc(OC)c3)NCCN2C1=O [Example 138, (12R,14S)-4-methoxy-12-(2-methoxyethoxy)-18-(oxetan-3-yloxy)-16-oxa-7,10,20,21,24-pentaazapentacyclo[15.5.2. 1^2,6.0^10,^14.0^20,^23]pentacosa-1(23),2,4,6(25),17(24),18,21-heptaen-11-one] | < 10 |  |  | 
COCc1cc2cc(c1)-c1cnn3cc(C)c(nc13)OC[C@@H]1CC(OC)C(=O)N1CCN2 (single isomer, unassigned) [Example 65, (12R or S,14S)-12-methoxy-4-(methoxymethyl)-18-methyl-16-oxa-7,10,20,21,24-pentaazapenta cyclo[15.5.2.1^2,6.0^10,14.0^20,23]pentacosa-1(23),2,4,6(25),17(24), 18,21-heptaen-11-one] | < 10 |  |  | 
CO[C@@H]1C[C@H]2COc3nc4c(cnn4cc3F)-c3cc(F)cc(c3)NCCN2C1=O [Example 34, (12R,14S)-4,18-difluoro-12-methoxy-16-oxa-7,10,20,21,24-pentaazapentacyclo[15.5.2.1^2,6.0^10,^14.0^20,^23]pentacosa-1(23),2(25),3,5,17(24),18,21-heptaen-11-one] | < 10 |  |  | 
COCCO[C@@H]1C[C@H]2COc3ccn4ncc(c4n3)-c3cc(cc(C(C)=O)c3)NCCN2C1=O [Example 98, (12R,14S)-4-acetyl-12-(2-methoxyethoxy)-16-oxa-7,10,20,21,24-pentaazapentacyclo[15.5.2.1^2,6.0^10,^14.0^20,^23]pentacosa-1(23),2,4,6(25),17(24),18,21-heptaen-11-one] | < 10 |  |  | 
CO[C@@H]1C[C@H]2COc3ccn4ncc(c4n3)-c3cc(cc(C4CC4)c3)NCCN2C1=O [Example 108, (12R,14S)-4-cyclopropyl-12-methoxy-16-oxa-7,10,20,21,24-pentaazapentacyclo[15.5.2.1^2,6.0^10,^14.0^20,^23]pentacosa-1(23),2,4,6(25),17(24),18,21-heptaen-11-one] | 100 to 11000 |  |  | 
C#Cc1cc2cc(c1)-c1cnn3ccc(nc13)OC[C@@H]1C[C@@H](OC)C(=O)N1CCN2 [Example 70, (12R,14S)-4-ethynyl-12-methoxy-16-oxa-7,10,20,21,24-pentaazapentacyclo[15.5.2.1^2,6.0^1°,^14.0^2°,^23]pentacosa-1(23),2(25),3,5,17(24),18,21-heptaen-11-one] | < 10 |  |  | 
COCCO[C@@H]1C[C@H]2COc3ccn4ncc(c4n3)-c3cc(Cl)cc(c3)NCCN2C1=O (racemic) [Example 116, (12R,14S)-4-chloro-12-(2-methoxyethoxy)-16-oxa-7,10,20,21,24-pentaazapentacyclo[15.5.2.1^2,6.0^10,^14.0^20,^23]pentacosa-1(23),2,4,6(25),17(24),18,21-heptaen-11-one] | < 10 |  |  | 
C#Cc1cc2cc(c1)-c1cnn3cc(C)c(nc13)OC[C@@H]1C[C@@H](OC)C(=O)N1CCN2 [Example 71] | < 10 |  |  | 
C=Cc1cc2cc(c1)-c1cnn3ccc(nc13)OC[C@@H]1C[C@@H](OCC)C(=O)N1CCN2 [Example 102, (12R,14S)-4-ethenyl-12-ethoxy-16-oxa-7,10,20,21,24-pentaazapentacyclo[15.5.2.1^2,6.0^1°,^14.0^2°,^23]pentacosa-1(23),2,4,6(25),17(24),18,21-heptaen-11-one] | < 10 |  |  | 

From US12630563B2, “Macrocyclic RIP2-kinase inhibitors” (Oncodesign S.A., priority 2020, dated 2026)
